Earlier results in patent publication US20140154346A1, “USE OF FENUGREEK EXTRACT TO ENHANCE FEMALE LIBIDO” (GE NUTRIENTS, INC., priority 2012, published 2014).

Tested on: women with hypoactive sexual disorder
Conditions: 300 μg/day, 12 months; also increase in desire and decrease in stress

With `C[C@]12CC[C@H]3[C@@H](CCC4=CC(=O)CC[C@@]43C)[C@@H]1CC[C@@H]2O` [testosterone] as the molecule, how does the “frequency of satisfying sexual encounters” value read?
The value was “increased frequency”.
